Source: US20220409629A1, “BENZODIAZEPINE DERIVATIVES FOR TREATING A RESPIRATORY SYNCYTIAL VIRUS (RSV) INFECTION” (priority 2019, published 2022)

Tests used:
[1] = Liver microsomal stability, human; format: in vitro ADME; settings: pH 7.4; human liver microsomes, 0.5 mg/mL protein, 1 μM compound, NADPH; >80% remaining at 45 min denoted >140; read-out: Liver Microsomal Stability: t1/2 (min); human
How it was run: (§1)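 Pooled liver microsomes (0.5 mg/mL protein) in 0.1 M phosphate pH 7.4 with 1 μM compound (0.25% DMSO), started with 1 mM NADPH at 37° C; sampled 0-45 min, minus-NADPH control 45 min. LC-MS/MS depletion slope gave t1/2 and CLint.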

[2] = Rat pharmacokinetics in vivo; settings: male Sprague Dawley rats; for AUC(0-t): read-out: PO AUClast
Protocol: The pharmacokinetics of compounds were studied in vivo in rats at doses of 1 mg/kg (IV) and 10 mg/kg (PO).
Male rats (Sprague Dawley) surgically prepared with a jugular vein cannula were treated with experimental compounds via intravenous administration (IV; n=3; 1 mg/kg) or oral administration (PO; n=3; 10 mg/kg). Compounds were formulated as a solution in 40:60 dimethylacetamide:saline (IV administration), a suspension in 1% methyl cellulose (viscosity: 15 cP), 0.1% Tween80 in water (PO administration: Example 3), a solution in 10% DMSO/10% Cremaphor/80% water (PO administration: Examples 4, 11, 21, 23, 25, 26, 32) or a solution in 10% DMSO/20% Cremaphor/70% water (PO administration: Examples 19, 20, 22, 24, 30). […] Serial blood samples were collected via the cannula at 0.02, 0.08, 0.25, 0.5, 1, 2, 4, 6, 8 and 24 h post IV dosing of compound, and at 0.08, 0.25, 0.5, 1, 2, 4, 6, 8 and 24 h post oral dosing of compound, and plasma was prepared by centrifugation and stored immediately at −80° C. Samples were subsequently thawed, prepared for analysis by protein precipitation with acetonitrile, and analysed by tandem LCMS using electrospray ionisation using a matrix-matched calibration curve. PK parameters were calculated from the resulting data.

[3] = Liver microsomal stability, dog; format: in vitro ADME; settings: pH 7.4; dog liver microsomes, 0.5 mg/mL protein, 1 μM compound, NADPH; >80% remaining at 45 min denoted >140; read-out: Liver Microsomal Stability: t1/2 (min); dog
How it was run: as §1

[4] = Liver hepatocyte stability, rat; format: in vitro ADME; settings: rat hepatocytes, 3 μM compound, 60 min, >80% remaining at 60 min denoted >186, read-out: Liver Hepatocyte Stability: t1/2 (min)
Protocol: Cryopreserved pooled hepatocytes were purchased from a reputable commercial supplier and stored in liquid nitrogen prior to use. Williams E media supplemented with 2 mM L-glutamine and 25 mM HEPES and test compound (final substrate concentration 3 μM; final DMSO concentration 0.25%) are pre-incubated at 37° C. prior to the addition of a suspension of cryopreserved hepatocytes (final cell density 0.5×10^6 viable cells/mL in Williams E media supplemented with 2 mM L-glutamine and 25 mM HEPES) to initiate the reaction. The final incubation volume is 500 μL. Two control compounds were included with each species, alongside appropriate vehicle control. The reactions are stopped by transferring 50 μL of incubate to 100 μL acetonitrile containing internal standard at the appropriate time points. Samples were removed at 6 time points (0, 5, 15, 30, 45 and 60 min) over the course of a 60 min experiment. The termination plates are centrifuged at 2500 rpm at 4° C. for 30 min to precipitate the protein. Following protein precipitation, the sample supernatants were combined in cassettes of up to 4 compounds and analysed using generic LC-MS/MS conditions. From a plot of ln peak area ratio (compound peak area/internal standard peak area) against time, the gradient of the line is determined. Subsequently, half-life (t1/2) and intrinsic clearance (CLint) were calculated.

[5] = rat, in vivo, IV 1 mg/kg, PO 10 mg/kg
[6] = rat, in vivo, IV 1 mg/kg, read-out: IV t½ (converted)
[7] = rat, in vivo, PO 10 mg/kg, read-out: PO t½ (converted)
[8] = rat, in vivo, doses 1 mg/kg (IV) and 10 mg/kg (PO)
[9] = 8 h, doses 1 mg/kg (IV) and 10 mg/kg (PO)

| Structure (SMILES) | half-life at 1 µM [1] | concentration at 8 h ([2]; rat, in vivo, 8 h, doses 1 mg/kg (IV) and 10 mg/kg (PO), read-out: C 8 h) | Vd ([2]; rat, in vivo, IV 1 mg/kg) | clearance ([2]; rat, in vivo, IV 1 mg/kg) | bioavailability [2, 5] | half-life [2, 6] | AUC(0-t) ([2]; rat, in vivo, PO 10 mg/kg) | half-life [2, 7] | Cmax [2, 8] | half-life at 1 µM [3] | half-life at 3 µM [4] | half-life [1] | C 8 h [2, 9] | half-life [3] | half-life [4] |
| --- | --- | --- | --- | --- | --- | --- | --- | --- | --- | --- | --- | --- | --- | --- | --- |
| CCn1ncc(C(=O)N[C@H]2N=C(c3ccccc3)c3ccccc3NC2=O)c1-c1ccc(NC(C)C)nc1F [Example 3, 1-Ethyl-5-[2-fluoro-6-(propan-2-ylamino)pyridin-3-yl]-N-[(3S)-2-oxo-5-phenyl-1,3-dihydro-1,4-benzodiazepin-3-yl]pyrazole-4-carboxamide] | 287 min | 108 ng/mL | 2.4 L/kg | 13.3 mL/min/kg | 17.1% | 132 min | 2070 ng·h/mL | 276 min | 199 ng/mL | 45.3 min | 73.8 min |  |  |  |  |
| CCn1ncc(C(=O)N[C@H]2N=C(c3ccccc3)c3ccccc3NC2=O)c1-c1ccc(NC2CC2)nc1F [Example 4, 1-Ethyl-5-[2-fluoro-6-(cyclopropylamino)pyridin-3-yl]-N-[(3S)-2-oxo-5-phenyl-1,3-dihydro-1,4-benzodiazepin-3-yl]pyrazole-4-carboxamide] |  |  | 2 L/kg | 22.7 mL/min/kg | 124% | 78 min | 9020 ng·h/mL | 132 min | 1340 ng/mL |  |  | 52 min | 470 ng/mL | 14.4 min | 47.3 min |
| O=C(N[C@H]1N=C(c2ccccc2)c2cccc(F)c2NC1=O)c1cnn(C2CCOCC2)c1-c1ccc(NC2CC2)nc1F [Example 21, 5-[6-(Cyclopropylamino)-2-fluoropyridin-3-yl]-N-[(3S)-9-fluoro-2-oxo-5-phenyl-1,3-dihydro-1,4-benzodiazepin-3-yl]-1-(oxan-4-yl)pyrazole-4-carboxamide] |  |  | 2.1 L/kg | 18.6 mL/min/kg | 98.2% | 102 min | 8180 ng·h/mL | 192 min | 1590 ng/mL |  |  | 170 min | 385 ng/mL | 124 min | 284 min |
| CC(C)Nc1ccc(-c2c(C(=O)N[C@H]3N=C(c4ccccc4)c4cccc(F)c4NC3=O)cnn2C2CCOCC2)c(F)n1 [Example 22, N-[(3S)-9-fluoro-2-oxo-5-phenyl-1,3-dihydro-1,4-benzodiazepin-3-yl]-5-[2-fluoro-6-(propan-2-ylamino)pyridin-3-yl]-1-(oxan-4-yl)pyrazole-4-carboxamide] |  |  | 1.9 L/kg | 10 mL/min/kg | 88.3% | 144 min | 14900 ng·h/mL | 156 min | 1440 ng/mL |  |  | 287 min | 734 ng/mL | 88.6 min | 120 min |
| CCNc1ccc(-c2c(C(=O)N[C@H]3N=C(c4ccccc4)c4cccc(F)c4NC3=O)cnn2C2CCOCC2)c(F)n1 [Example 24, 5-[6-(Ethylamino)-2-fluoropyridin-3-yl]-N-[(3S)-9-fluoro-2-oxo-5-phenyl-1,3-dihydro-1,4-benzodiazepin-3-yl]-1-(oxan-4-yl)pyrazole-4-carboxamide] |  |  | 1.4 L/kg | 15 mL/min/kg | 50% | 78 min | 5540 ng·h/mL | 204 min | 791 ng/mL |  |  | > 140 min | 182 ng/mL | 198 min | 228 min |
